Assay results: patent publication EP4800015A1, “AZABICYCLO DERIVATIVE AND PREPARATION METHOD THEREFOR, AND USE” (Zhejiang Hisun Pharmaceutical Co., Ltd., priority 2023, dated 2025)

Legend:
recombinant human WRN = target: T1, recombinant human WRN (Homo sapiens, UniProt Q14191); assay: Inhibition of WRN enzyme activity (ATPase), ADP-Glo Kinase Assay; format: biochemical; details: WRN protein 5 nM, Flap 0.1 nM, ATP 30 µM; read-out: IC50
T1 construct: purchased BPS 101264
Outline: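 ATPase activity was measured by ADP-Glo luminescence after a 10-min room-temperature reaction with 30 µM ATP and 0.1 nM Flap26 oligonucleotide substrate. The 5 nM WRN had first been exposed to compound (0.004–1000 nM) for 15 min in pH 7.5 Tris buffer with 2 mM MgCl2. IC50 values came from log-concentration regression against the DMSO control.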

SW48 cells = assay: Inhibition of SW48 cell proliferation (CellTiter-Glo); format: cell-based; details: Homo sapiens; SW48 cells (MSI-H), 120 hours
Experimental: The following method was used to determine the effect of the compounds of the present disclosure on SW48 cell proliferation. SW48 cells (MSI-H cells) were purchased from American ATCC cell bank and cultured in Leibovitz's L-15 medium (Gibco, catalog No. 11415064) containing 10% fetal bovine serum, 100 U penicillin, and 100 µg/mL streptomycin. Cell viability was determined by CellTiter-Glo® Luminescent Cell Viability Assay kit (Promega, catalog No. G7573).
The experiment was performed according to the steps of the kit manual, which is briefly described as follows: test compounds were first dissolved in DMSO to prepare 10 mM stock solutions, and then diluted with medium to prepare test samples, with final compound concentrations ranging from 10000 nM to 1.52 nM. Cells in logarithmic growth phase were seeded into 96-well cell culture plates at a density of 500 cells per well and cultured overnight at 37 °C in an air incubator, then test compounds were added and cultivation continued for 120 hours. After the cultivation was completed, 40 µL of CellTiter-Glo detection reagent was added to each well, shaken for 5 minutes, and then left to stand for 10 minutes. Luminescence values of each well were read on a microplate reader using Luminescence mode. The percentage inhibition at each concentration point was calculated by comparison with the control group (0.1% DMSO), and then IC50 values for the compounds for inhibition of cell proliferation were obtained using nonlinear regression analysis of compound concentration logarithm versus inhibition rate in GraphPad Prism 9 software, as shown in Table 2.
The IC50 value results of the compounds of the present disclosure are represented by A, wherein "A" indicates 1 nM < IC50 ≤ 100 nM. Table 2 IC50 data for inhibition of SW48 cell proliferation by the compounds of the present disclosure

RL95-2 cells = assay: Inhibition of RL95-2 cell proliferation (CellTiter-Glo); format: cell-based; details: Homo sapiens; RL95-2 cells (MSI-H), 120 hours
Outline: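 Proliferation IC50 derived by nonlinear regression of % inhibition against log concentration, with 0.1% DMSO wells as reference. CellTiter-Glo luminescence was read after 120 h of compound exposure (10000 nM down to 1.52 nM final) at 37 °C. MSI-H RL95-2 cells seeded at 500/well in DMEM/F12 with 10% FBS the day before.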

T1 sequence (Q14191 whole entry): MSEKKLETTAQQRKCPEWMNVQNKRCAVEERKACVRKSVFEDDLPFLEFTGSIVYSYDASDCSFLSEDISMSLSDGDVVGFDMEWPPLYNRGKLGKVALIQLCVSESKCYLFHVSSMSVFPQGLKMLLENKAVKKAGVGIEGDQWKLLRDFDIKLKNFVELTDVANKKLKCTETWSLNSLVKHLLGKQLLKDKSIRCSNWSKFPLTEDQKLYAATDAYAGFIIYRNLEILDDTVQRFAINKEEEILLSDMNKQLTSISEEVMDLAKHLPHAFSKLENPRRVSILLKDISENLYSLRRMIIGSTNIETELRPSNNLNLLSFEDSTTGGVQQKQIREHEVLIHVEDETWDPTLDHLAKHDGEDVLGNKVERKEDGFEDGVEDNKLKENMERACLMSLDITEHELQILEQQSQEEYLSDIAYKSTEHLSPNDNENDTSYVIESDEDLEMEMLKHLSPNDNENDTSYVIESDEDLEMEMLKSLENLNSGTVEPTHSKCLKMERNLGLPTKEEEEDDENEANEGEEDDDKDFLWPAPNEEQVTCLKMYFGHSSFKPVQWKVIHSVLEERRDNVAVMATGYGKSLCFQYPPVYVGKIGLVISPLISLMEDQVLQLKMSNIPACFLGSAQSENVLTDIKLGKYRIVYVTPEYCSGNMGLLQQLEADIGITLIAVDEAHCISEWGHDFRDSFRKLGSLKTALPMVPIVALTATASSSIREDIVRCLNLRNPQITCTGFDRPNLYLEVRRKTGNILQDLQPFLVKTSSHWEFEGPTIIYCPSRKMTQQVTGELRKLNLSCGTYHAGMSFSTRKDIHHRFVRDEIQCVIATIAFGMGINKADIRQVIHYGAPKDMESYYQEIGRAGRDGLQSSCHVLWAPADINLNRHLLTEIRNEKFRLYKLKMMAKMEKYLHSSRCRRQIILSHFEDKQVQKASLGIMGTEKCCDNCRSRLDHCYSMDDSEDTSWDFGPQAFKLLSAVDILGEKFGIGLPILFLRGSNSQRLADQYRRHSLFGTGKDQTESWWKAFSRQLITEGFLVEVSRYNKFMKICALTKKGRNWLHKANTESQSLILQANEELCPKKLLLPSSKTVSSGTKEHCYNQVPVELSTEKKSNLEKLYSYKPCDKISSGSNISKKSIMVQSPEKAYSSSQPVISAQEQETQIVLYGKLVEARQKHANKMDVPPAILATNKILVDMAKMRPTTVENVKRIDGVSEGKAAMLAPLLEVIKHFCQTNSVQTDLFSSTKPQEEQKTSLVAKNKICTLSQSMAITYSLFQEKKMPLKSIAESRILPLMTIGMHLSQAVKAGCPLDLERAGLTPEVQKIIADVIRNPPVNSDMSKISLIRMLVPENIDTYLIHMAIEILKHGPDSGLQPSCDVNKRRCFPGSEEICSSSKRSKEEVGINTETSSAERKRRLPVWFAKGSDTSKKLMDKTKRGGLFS

| IC50 (recombinant human WRN) | IC50 (SW48 cells) | Compound | IC50 (RL95-2 cells) |
| --- | --- | --- | --- |
| 1 to 100 nM | 1 to 100 nM | CCc1c(N2CCN(C(=O)c3ncnc(C)c3O)CC2)c(=O)n2nc(-c3ccc4c(c3)CCO4)nc2n1CC(=O)Nc1ccc(S(F)(F)(F)(F)F)cc1C [Example 88, 2-(2-(2,3-dihydrobenzofuran-5-yl)-5-ethyl-6-(4-(5-hydroxy-6-methylpyrimidine-4-carbonyl)piperazin-1-yl)-7-oxo-[1,2,4]triazolo[1,5-a]pyrimidin-4(7H)-yl)-N-(2-methyl-4-(pentafluoro-λ^6-sulfaneyl)phenyl)acetamide] | 1 to 100 nM |
| 1 to 100 nM | 1 to 100 nM | CCc1c(N2CCN(C(=O)c3ncnc(C)c3O)CC2)c(=O)n2nc(-c3cc4ccccc4s3)nc2n1CC(=O)Nc1ccc(S(F)(F)(F)(F)F)cc1 [Example 98, 2-(2-(benzo[b]thiophen-2-yl)-5-ethyl-6-(4-(5-hydroxy-6-methylpyrimidine-4-carbonyl)piperazin-1-yl)-7-oxo-[1,2,4]triazolo[1,5-a]pyrimidin-4(7H)-yl)-N-(4-(pentafluoro-λ^6-sulfaneyl)phenyl)acet amide] | 1 to 100 nM |
| 1 to 100 nM | 1 to 100 nM | CCc1c(N2CCN(C(=O)c3ncnc(C)c3O)CC2)c(=O)n2nc(-c3ccc4nn(C)cc4c3)nc2n1CC(=O)Nc1ccc(C(F)(F)F)cc1Cl [Example 99, N-(2-Chloro-4-(trifluoromethyl)phenyl)-2-(5-ethyl-6-(4-(5-hydroxy-6-methylpyrimidine-4-carbonyl)piperazin-1-yl)-2-(2-methyl-2H-indazol-5-yl)-7-oxo-[1,2,4]triazolo[1,5-a]pyrimidin-4(7H)-yl)acetamide] | 1 to 100 nM |
| < 1 nM | 1 to 100 nM | CCc1c(N2CCN(C(=O)c3ncnc(C)c3O)CC2)c(=O)n2nc(-c3cnc4[nH]ccc4c3)nc2n1CC(=O)Nc1ccc(C(F)(F)F)cc1Cl [Example 101, N-(2-chloro-4-(trifluoromethyl)phenyl)-2-(5-ethyl-6-(4-(5-hydroxy-6-methylpyrimidine-4-carbonyl)piperazin-1-yl)-7-oxo-2-(1H-pyrrolo[2,3-b]pyridin-5-yl)-[1,2,4]triazolo[1,5-a]pyrimidin-4(7H) -yl)acetamide] | 1 to 100 nM |
| 1 to 100 nM | 1 to 100 nM | CCc1c(N2CCN(C(=O)c3ncnc(C)c3O)CC2)c(=O)n2nc(-c3ccc4[nH]ccc4c3)nc2n1CC(=O)Nc1ccc(C(F)(F)F)cc1Cl [Example 102, N-(2-chloro-4-(trifluoromethyl)phenyl)-2-(5-ethyl-6-(4-(5-hydroxy-6-methylpyrimidine-4-carbonyl)piperazin-1-yl)-2-(1H-indol-5-yl)-7-oxo-[1,2,4]triazolo[1,5-a]pyrimidin-4(7H)-yl)acetamide] | 1 to 100 nM |
| 1 to 100 nM | 1 to 100 nM | CCc1c(N2CCN(C(=O)c3ncnc(C)c3O)CC2)c(=O)n2nc(-c3ccc4n[nH]cc4c3)nc2n1CC(=O)Nc1ccc(C(F)(F)F)cc1Cl [Example 112, N-(2-chloro-4-(trifluoromethyl)phenyl)-2-(5-ethyl-6-(4-(5-hydroxy-6-methylpyrimidine-4-carbonyl)piperazin-1-yl)-2-(1H-indazol-5-yl)-7-oxo-[1,2,4]triazolo[1,5-a]pyrimidin-4(7H)-yl)acetamide] | 1 to 100 nM |
| 1 to 100 nM | 1 to 100 nM | CCc1c(N2CCN(C(=O)c3ncnc(C)c3O)CC2)c(=O)n2nc(-c3ccc4c(cnn4C)c3)nc2n1CC(=O)Nc1ccc(C(F)(F)F)cc1Cl [Example 113, N-(2-chloro-4-(trifluoromethyl)phenyl)-2-(5-ethyl-6-(4-(5-hydroxy-6-methylpyrimidine-4-carbonyl)piperazin-1-yl)-2-(1-methyl-1H-indazol-5-yl)-7-oxo-[1,2,4]triazolo[1,5-a]pyrimidin-4(7H)-yl) acetamide] | 1 to 100 nM |
| 1 to 100 nM | 1 to 100 nM | CCc1c(N2CCN(C(=O)c3ncnc(C)c3O)CC2)c(=O)n2nc(C3=CC4CCC3C4)nc2n1CC(=O)Nc1ccc(S(F)(F)(F)(F)F)cc1 (stereo not drawn) [Example 118, 2-(2-(bicyclo[2.2.1]hept-2-en-2-yl)-5-ethyl-6-(4-(5-hydroxy-6-methylpyrimidine-4-carbonyl)piperazin-1-yl)-7-oxo-[1,2,4]triazolo[1,5-a]pyrimidin-4(7H)-yl)-N-(4-(pentafluoro-λ^6-sulfaneyl)phenyl)acetamide] | 1 to 100 nM |
| 1 to 100 nM | 1 to 100 nM | CCc1c(N2CCN(C(=O)c3ncnc(C)c3O)CC2)c(=O)n2nc(C3=CCC4(CC3)CC4)nc2n1CC(=O)Nc1ccc(S(F)(F)(F)(F)F)cc1 [Example 120, 2-(5-ethyl-6-(4-(5-hydroxy-6-methylpyrimidine-4-carbonyl)piperazin-1-yl)-7-oxo-2-(spiro[2.5]oct-5-en-6-yl)-[1,2,4]triazolo[1,5-a]pyrimidin-4(7H)-yl)-N-(4-(pentafluoro-λ6-sulfaneyl)phenyl)ace tamide] | 1 to 100 nM |
| 1 to 100 nM | 1 to 100 nM | CCc1c(N2CCN(C(=O)c3ncccc3O)CC2)c(=O)n2nc(C3=CC4CC(O)CC4C3)nc2n1CC(=O)Nc1ccc(C(F)(F)F)cc1Cl (stereo not drawn) [Example 121, N-(2-chloro-4-(trifluoromethyl)phenyl)-2-(5-ethyl-2-(5-hydroxy-1,3a,4,5,6,6a-hexahydropentalen-2-yl)-6-(4-(3-hydroxypicolinoyl)piperazin-1-yl)-7-oxo-[1,2,4]triazolo[1,5-a]pyrimidin-4(7H)-yl) acetamide] | 1 to 100 nM |
| 1 to 100 nM | 1 to 100 nM | CCc1c(N2CCN(C(=O)c3ncnc(C)c3O)CC2)c(=O)n2nc(-c3ccc4cc[nH]c4c3)nc2n1CC(=O)Nc1ccc(C(F)(F)F)cc1Cl [Example 123, N-(2-chloro-4-(trifluoromethyl)phenyl)-2-(5-ethyl-6-(4-(5-hydroxy-6-methylpyrimidine-4-carbonyl)piperazin-1-yl)-2-(1H-indo1-6-yl)-7-oxo-[1,2,4]triazolo[1,5-a]pyrimidin-4(7H)-yl)acetamide] | 1 to 100 nM |
| 1 to 100 nM | 1 to 100 nM | CCc1c(N2CCN(C(=O)c3ncnc(C)c3O)CC2)c(=O)n2nc(-c3ccc4nccn4c3)nc2n1CC(=O)Nc1ccc(C(F)(F)F)cc1Cl [Example 126, N-(2-chloro-4-(trifluoromethyl)phenyl)-2-(5-ethyl-6-(4-(5-hydroxy-6-methylpyrimidine-4-carbonyl)piperazin-1-yl)-2-(imidazo[1,2-a]pyridin-6-yl)-7-oxo-[1,2,4]triazolo[1,5-a]pyrimidin-4(7H)-yl)acetamide] | 1 to 100 nM |
| 1 to 100 nM | 1 to 100 nM | CCc1c(N2CCN(C(=O)c3ncnc(C)c3O)CC2)c(=O)n2nc(-c3ccc4c(c3)COC4)nc2n1CC(=O)Nc1ccc(C(F)(F)F)cc1Cl [Example 129, N-(2-chloro-4-(trifluoromethyl)phenyl)-2-(2-(1,3-dihydroisobenzofuran-5-yl)-5-ethyl-6-(4-(5-hydroxy-6-methylpyrimidine-4-carbonyl)piperazin-1-yl)-7-oxo-[1,2,4]triazolo[1,5-a]pyrimidin-4(7 H)-yl)acetamide] | 1 to 100 nM |
| 1 to 100 nM | 1 to 100 nM | CCc1c(N2CCN(C(=O)c3ncnc(C)c3O)CC2)c(=O)n2nc(-c3ccc4c(c3)CCCO4)nc2n1CC(=O)Nc1ccc(C(F)(F)F)cc1Cl [Example 130, N-(2-chloro-4-(trifluoromethyl)phenyl)-2-(2-(chroman-6-yl)-5-ethyl-6-(4-(5-hydroxy-6-methylpyrimidine-4-carbonyl)piperazin-1-yl)-7-oxo-[1,2,4]triazolo[1,5-a]pyrimidin-4(7H)-yl)acetamide] | 1 to 100 nM |
| 1 to 100 nM | 1 to 100 nM | CCc1c(N2CCN(C(=O)c3ncnc(C)c3O)CC2)c(=O)n2nc(-c3cc4ccncc4s3)nc2n1CC(=O)Nc1ccc(C(F)(F)F)cc1Cl [Example 132, N-(2-chloro-4-(trifluoromethyl)phenyl)-2-(5-ethyl-6-(4-(5-hydroxy-6-methylpyrimidine-4-carbonyl)piperazin-1-yl)-7-oxo-2-(thieno[2,3-c]pyridin-2-yl)-[1,2,4]triazolo[1,5-a]pyrimidin-4(7H)-yl)a cetamide] | 1 to 100 nM |
